Data: the supplement of paper PMC11061612

Legend:
AZD1775 = compound: C=CCn1c(=O)c2cnc(Nc3ccc(N4CCN(C)CC4)cc3)nc2n1-c1cccc(C(C)(C)O)n1 [AZD1775]; details: max 3 µM
In short: (§1)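 Cancer cell lines were dosed for 72 hours (final DMSO typically 0.2%) after 24 hours at 37°C and 5% CO2 in 1536-well plates containing 7.5 μl DMEM/F12 or RPMI with 10% FBS. Viability came from CellTiter-Glo 2.0 luminescence, scaled between blank-well and DMSO-well means, and dose responses were fitted to a two-parameter logistic curve with a non-linear mixed effects model. The single-agent IC50 was obtained from this fit.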

SRA737 = compound: N#Cc1cnc(Nc2cc(NC[C@H]3CNCCO3)c(C(F)(F)F)cn2)cn1 [SRA737]; details: max 10 µM
In short: as §1

Lapatinib = compound: CS(=O)(=O)CCNCc1ccc(-c2ccc3ncnc(Nc4ccc(OCc5cccc(F)c5)c(Cl)c4)c3c2)o1 [Lapatinib]; details: max 10 µM
In short: as §1

AZD4320 = compound: CN(CC[C@H](CSC1=CC=CC=C1)NC2=C(C=C(C=C2)S(=O)(=O)NC(=O)C3=CC=C(C=C3)N4CCC(CC4)[C@H](C5=CC=CC=C5C6=CC=C(C=C6)Cl)O)S(=O)(=O)C(F)(F)F)CCO [AZD4320]; details: max 1 µM
In short: as §1

SN-38 = compound: CCc1c2c(nc3ccc(O)cc13)-c1cc3c(c(=O)n1C2)COC(=O)[C@]3(O)CC [SN-38]; details: max 0.3 µM
In short: as §1

Carboplatin = compound: C1CC(C1)(C(=O)[O-])C(=O)[O-].N.N.[Pt+2] [Carboplatin]; details: max 10 µM
In short: as §1

Gefitinib = compound: COc1cc2ncnc(Nc3ccc(F)c(Cl)c3)c2cc1OCCCN1CCOCC1 [Gefitinib]; details: max 10 µM
In short: as §1

Palbociclib = compound: CC(=O)c1c(C)c2cnc(Nc3ccc(N4CCNCC4)cn3)nc2n(C2CCCC2)c1=O [Palbociclib]; details: max 10 µM
In short: as §1

Dasatinib = compound: CC1=C(C(=CC=C1)Cl)NC(=O)C2=CN=C(S2)NC3=CC(=NC(=N3)C)N4CCN(CC4)CCO [Dasatinib]; details: max 2 µM
In short: as §1

Trametinib = compound: CC(=O)Nc1cccc(-n2c(=O)n(C3CC3)c(=O)c3c(Nc4ccc(I)cc4F)n(C)c(=O)c(C)c32)c1 [Trametinib]; details: max 1 µM
In short: as §1

AZD5363 = compound: C1CN(CCC1(C(=O)N[C@@H](CCO)C2=CC=C(C=C2)Cl)N)C3=NC=NC4=C3C=CN4 [AZD5363]; details: max 10 µM
In short: as §1

AZD5153 = compound: COc1nnc2ccc(N3CCC(c4ccc(OCCN5CCN(C)C(=O)[C@H]5C)cc4)CC3)nn12 [AZD5153]; details: max 1 µM
In short: as §1

MK-2206 = compound: NC1(c2ccc(-c3nc4ccn5c(=O)[nH]nc5c4cc3-c3ccccc3)cc2)CCC1 [MK-2206]; details: max 10 µM
In short: as §1

AZD1390 = compound: CC(C)n1c(=O)n(C)c2cnc3cc(F)c(-c4ccc(OCCCN5CCCCC5)nc4)cc3c21 [AZD1390]; details: max 0.3 µM
In short: as §1

Olaparib = compound: O=C(c1cc(Cc2n[nH]c(=O)c3ccccc23)ccc1F)N1CCN(C(=O)C2CC2)CC1 [Olaparib]; details: max 10 µM
In short: as §1

[1] = compound: O=C(Nc1ccc2[nH]nc(-c3ccncc3)c2c1)[C@@H]1CCN(CC(=O)N2CCN(c3ccc(-c4ncccn4)cc3)CC2)C1; details: max 5 µM
In short: as §1

Savolitinib = compound: C[C@@H](c1ccc2nccn2c1)n1nnc2ncc(-c3cnn(C)c3)nc21 [Savolitinib]; details: max 1 µM
In short: as §1

Selumetinib = compound: Cn1cnc2c(F)c(Nc3ccc(Br)cc3Cl)c(C(=O)NOCCO)cc21 [Selumetinib]; details: max 10 µM
In short: as §1

Etoposide = compound: COc1cc([C@@H]2c3cc4c(cc3[C@@H](O[C@@H]3O[C@@H]5CO[C@@H](C)O[C@H]5[C@H](O)[C@H]3O)[C@H]3COC(=O)[C@H]23)OCO4)cc(OC)c1O [Etoposide]; details: max 10 µM
In short: as §1

Crizotinib = compound: C[C@@H](Oc1cc(-c2cnn(C3CCNCC3)c2)cnc1N)c1c(Cl)ccc(F)c1Cl [Crizotinib]; details: max 10 µM
In short: as §1

AZD7648 = compound: Cc1cc2ncnn2cc1Nc1ncc2c(n1)n(C1CCOCC1)c(=O)n2C [AZD7648]; details: max 10 µM
In short: as §1

AZD2811 = compound: CCN(CCO)CCCOc1ccc2c(Nc3cc(CC(=O)Nc4cccc(F)c4)[nH]n3)ncnc2c1 [AZD2811]; details: max 1 µM
In short: as §1

Gemcitabine = compound: Nc1ccn([C@@H]2O[C@H](CO)[C@@H](O)C2(F)F)c(=O)n1 [Gemcitabine]; details: max 0.3 µM
In short: as §1

Venetoclax = compound: CC1(C)CCC(CN2CCN(c3ccc(C(=O)NS(=O)(=O)c4ccc(NCC5CCOCC5)c([N+](=O)[O-])c4)c(Oc4cnc5[nH]ccc5c4)c3)CC2)=C(c2ccc(Cl)cc2)C1 [Venetoclax]; details: max 1 µM
In short: as §1

Doxorubicin = compound: COc1cccc2c1C(=O)c1c(O)c3c(c(O)c1C2=O)C[C@@](O)(C(=O)CO)C[C@@H]3O[C@H]1C[C@H](N)[C@H](O)[C@H](C)O1 [Doxorubicin]; details: max 1 µM
In short: as §1

AZD8186 = compound: C[C@@H](Nc1cc(F)cc(F)c1)c1cc(C(=O)N(C)C)cc2c(=O)cc(N3CCOCC3)oc12 [AZD8186]; details: max 10 µM
In short: as §1

Prexasertib = compound: COc1cccc(OCCCN)c1-c1cc(Nc2cnc(C#N)cn2)n[nH]1 [Prexasertib]; details: max 1 µM
In short: as §1

SG3199 = compound: CC1=CN2[C@@H](C1)C=NC3=CC(=C(C=C3C2=O)OC)OCCCCCOC4=C(C=C5C(=C4)N=C[C@@H]6CC(=CN6C5=O)C)OC [SG3199]; details: max 0.001 µM
In short: as §1

Alisertib = compound: COc1cc(Nc2ncc3c(n2)-c2ccc(Cl)cc2C(c2c(F)cccc2OC)=NC3)ccc1C(=O)O [Alisertib]; details: max 10 µM
In short: as §1

AZD5991 = compound: Cc1c2c(nn1C)CSCc1cc(n(C)n1)CSc1cc(c3ccccc3c1)OCCCc1c(C(=O)O)n(C)c3c-2c(Cl)ccc13 [AZD5991]; details: max 1 µM
In short: as §1

AZD0156 = compound: CN(C)CCCOc1ccc(-c2ccc3ncc4c(c3c2)n(C2CCOCC2)c(=O)n4C)cn1 [AZD0156]; details: max 3 µM
In short: as §1

Paclitaxel = compound: CC(=O)O[C@H]1C(=O)[C@@]2(C)[C@H]([C@H](OC(=O)c3ccccc3)[C@]3(O)C[C@H](OC(=O)[C@H](O)[C@@H](NC(=O)c4ccccc4)c4ccccc4)C(C)=C1C3(C)C)[C@]1(OC(C)=O)CO[C@@H]1C[C@@H]2O [Paclitaxel]; details: max 3 µM
In short: as §1

5-Fluorouracil = compound: O=c1[nH]cc(F)c(=O)[nH]1 [5-Fluorouracil]; details: max 20 µM
In short: as §1

Taselisib = compound: Cc1nc(-c2cn3c(n2)-c2ccc(-c4cnn(C(C)(C)C(N)=O)c4)cc2OCC3)n(C(C)C)n1 [Taselisib]; details: max 10 µM
In short: as §1

AZD6738 = compound: C[C@@H]1COCCN1C2=NC(=NC(=C2)C3(CC3)[S@](=N)(=O)C)C4=C5C=CNC5=NC=C4 [AZD6738]; details: max 10 µM
In short: as §1

Row | Cell Line | IC50, cell viability 72 h (AZD1775) | IC50, cell viability 72 h (SRA737) | IC50, cell viability 72 h (Lapatinib) | IC50, cell viability 72 h (AZD4320) | IC50, cell viability 72 h (SN-38) | IC50, cell viability 72 h (Carboplatin) | IC50, cell viability 72 h (Gefitinib) | IC50, cell viability 72 h (Palbociclib) | IC50, cell viability 72 h (Dasatinib) | IC50, cell viability 72 h (Trametinib) | IC50, cell viability 72 h (AZD5363) | IC50, cell viability 72 h (AZD5153) | IC50, cell viability 72 h (MK-2206) | IC50, cell viability 72 h (AZD1390) | IC50, cell viability 72 h (Olaparib) | IC50, cell viability 72 h [1] | IC50, cell viability 72 h (Savolitinib) | IC50, cell viability 72 h (Selumetinib) | IC50, cell viability 72 h (Etoposide) | IC50, cell viability 72 h (Crizotinib) | IC50, cell viability 72 h (AZD7648) | IC50, cell viability 72 h (AZD2811) | IC50, cell viability 72 h (Gemcitabine) | IC50, cell viability 72 h (Venetoclax) | IC50, cell viability 72 h (Doxorubicin) | IC50, cell viability 72 h (AZD8186) | IC50, cell viability 72 h (Prexasertib) | IC50, cell viability 72 h (SG3199) | IC50, cell viability 72 h (Alisertib) | IC50, cell viability 72 h (AZD5991) | IC50, cell viability 72 h (AZD0156) | IC50, cell viability 72 h (Paclitaxel) | IC50, cell viability 72 h (5-Fluorouracil) | IC50, cell viability 72 h (Taselisib) | IC50, cell viability 72 h (AZD6738)
1 | SW1710 (Bladder Carcinoma) | > 3000 nM | > 10000 nM | > 10000 nM | > 1000 nM | > 300 nM | > 10000 nM | > 10000 nM | > 10000 nM | 190 nM | > 1000 nM | > 10000 nM | > 1000 nM | > 10000 nM | > 300 nM | > 10000 nM | > 5000 nM | > 1000 nM | > 10000 nM | > 10000 nM | > 10000 nM | > 10000 nM | > 1000 nM | > 300 nM | > 1000 nM | > 1000 nM | > 10000 nM | 86.4 nM | > 1 nM | > 10000 nM | > 1000 nM | > 3000 nM | 15.1 nM | > 20000 nM | > 10000 nM | > 10000 nM
2 | TGBC1TKB (Biliary Tract Carcinoma) | > 3000 nM | > 10000 nM | > 10000 nM | > 1000 nM | > 300 nM | > 10000 nM | > 10000 nM | > 10000 nM | > 2000 nM | > 1000 nM | > 10000 nM | > 1000 nM | > 10000 nM | > 300 nM | > 10000 nM | > 5000 nM | > 1000 nM | > 10000 nM | > 10000 nM | > 10000 nM | > 10000 nM | > 1000 nM | > 300 nM | > 1000 nM | > 1000 nM | > 10000 nM | > 1000 nM | > 1 nM | > 10000 nM | > 1000 nM | > 3000 nM | 969 nM | > 20000 nM | > 10000 nM | > 10000 nM
